Key:
Test in all cases: relative viability (nuclei count vs DMSO), 5 days (fraction); higher = more cells survive
[1] = tested on: PC-14
How it was run: (§1)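 Relative viability is defined as nuclei in treated wells over nuclei in vehicle wells. Duplicate plates were run and medians reported. Lung cancer cell lines in 1536-well plates were dosed by pin tool one day after seeding, with one drug or with a fixed anchor-drug dose plus five library-drug doses (not always all listed) in √10 steps, and nuclei were counted after 5 days.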

[2] = tested on: LK-2
How it was run: as §1

[3] = tested on: NCI-H661
How it was run: as §1

[4] = tested on: NCI-H1993
How it was run: as §1

[5] = tested on: ABC-1
How it was run: as §1

[6] = tested on: A-427
How it was run: as §1

[7] = tested on: NCI-H2405
How it was run: as §1

[8] = tested on: NCI-H23
How it was run: as §1

[9] = tested on: NCI-H1755
How it was run: as §1

[10] = tested on: NCI-H1793
How it was run: as §1

[11] = tested on: LOU-NH91
How it was run: as §1

[12] = tested on: LU99A
How it was run: as §1

[13] = tested on: NCI-H2342
How it was run: as §1

[14] = tested on: NCI-H1437
How it was run: as §1

[15] = tested on: HARA
How it was run: as §1

[16] = tested on: BEN
How it was run: as §1

[17] = tested on: NCI-H2170
How it was run: as §1

[18] = tested on: LCLC-103H
How it was run: as §1

[19] = tested on: NCI-H1666
How it was run: as §1

[20] = tested on: NCI-H3122
How it was run: as §1

[21] = tested on: NCI-H2085
How it was run: as §1

[22] = tested on: LXF-289
How it was run: as §1

[23] = tested on: RERF-LC-KJ
How it was run: as §1

## C=C1C(=O)O[C@@H](CCCCCCCC)[C@@H]1C(=O)O [C-75] + Nc1ncn([C@H]2C[C@H](O)[C@@H](CO)O2)c(=O)n1 [Decitabine] (partner 2 µM)
[1]; first compound 0.08 µM
  relative viability: 0.226
[1]; first compound 0.253 µM
  relative viability: 0.233
[1]; first compound 0.8 µM
  relative viability: 0.216
[1]; first compound 2.53 µM
  relative viability: 0.191
[1]; first compound 8 µM
  relative viability: 0.168
[2]; first compound 0.08 µM
  relative viability: 0.309
[2]; first compound 0.253 µM
  relative viability: 0.374
[2]; first compound 0.8 µM
  relative viability: 0.306
[2]; first compound 2.53 µM
  relative viability: 0.232
[2]; first compound 8 µM
  relative viability: 0.271
[3]; first compound 0.08 µM
  relative viability: 0.545
[3]; first compound 0.253 µM
  relative viability: 0.54
[3]; first compound 0.8 µM
  relative viability: 0.519
[3]; first compound 2.53 µM
  relative viability: 0.41
[3]; first compound 8 µM
  relative viability: 0.448
[4]; first compound 0.08 µM
  relative viability: 0.695
[4]; first compound 0.253 µM
  relative viability: 0.685
[4]; first compound 0.8 µM
  relative viability: 0.605
[4]; first compound 2.53 µM
  relative viability: 0.549
[4]; first compound 8 µM
  relative viability: 0.571
[5]; first compound 0.08 µM
  relative viability: 1.03
[5]; first compound 0.253 µM
  relative viability: 1.18
[5]; first compound 0.8 µM
  relative viability: 1.08
[5]; first compound 2.53 µM
  relative viability: 0.72
[5]; first compound 8 µM
  relative viability: 0.81
[6]; first compound 0.08 µM
  relative viability: 0.607
[6]; first compound 0.253 µM
  relative viability: 0.533
[6]; first compound 0.8 µM
  relative viability: 0.487
[6]; first compound 2.53 µM
  relative viability: 0.428
[6]; first compound 8 µM
  relative viability: 0.512
[7]; first compound 0.08 µM
  relative viability: 0.807
[7]; first compound 0.253 µM
  relative viability: 0.423
[7]; first compound 0.8 µM
  relative viability: 0.714
[7]; first compound 2.53 µM
  relative viability: 0.681
[7]; first compound 8 µM
  relative viability: 0.789
[8]; first compound 0.08 µM
  relative viability: 0.307
[8]; first compound 0.253 µM
  relative viability: 0.334
[8]; first compound 0.8 µM
  relative viability: 0.308
[8]; first compound 2.53 µM
  relative viability: 0.249
[8]; first compound 8 µM
  relative viability: 0.247
[9]; first compound 0.08 µM
  relative viability: 0.683
[9]; first compound 0.253 µM
  relative viability: 0.713
[9]; first compound 0.8 µM
  relative viability: 0.684
[9]; first compound 2.53 µM
  relative viability: 0.646
[9]; first compound 8 µM
  relative viability: 0.681
[10]; first compound 0.08 µM
  relative viability: 0.485
[10]; first compound 0.253 µM
  relative viability: 0.571
[10]; first compound 2.53 µM
  relative viability: 0.275
[10]; first compound 8 µM
  relative viability: 0.449
[11]; first compound 0.08 µM
  relative viability: 0.83
[11]; first compound 0.253 µM
  relative viability: 0.734
[11]; first compound 0.8 µM
  relative viability: 0.752
[11]; first compound 8 µM
  relative viability: 0.792
[12]; first compound 0.08 µM
  relative viability: 0.831
[12]; first compound 0.253 µM
  relative viability: 0.78
[12]; first compound 0.8 µM
  relative viability: 0.841
[12]; first compound 2.53 µM
  relative viability: 0.83
[12]; first compound 8 µM
  relative viability: 0.79
[13]; first compound 0.08 µM
  relative viability: 0.749
[13]; first compound 0.253 µM
  relative viability: 0.785
[13]; first compound 0.8 µM
  relative viability: 0.667
[13]; first compound 2.53 µM
  relative viability: 0.57
[13]; first compound 8 µM
  relative viability: 0.722
[14]; first compound 0.08 µM
  relative viability: 0.57
[14]; first compound 0.253 µM
  relative viability: 0.586
[14]; first compound 0.8 µM
  relative viability: 0.577
[14]; first compound 8 µM
  relative viability: 0.48
[15]; first compound 0.08 µM
  relative viability: 0.538
[15]; first compound 0.253 µM
  relative viability: 0.444
[15]; first compound 0.8 µM
  relative viability: 0.565
[15]; first compound 2.53 µM
  relative viability: 0.535
[15]; first compound 8 µM
  relative viability: 0.756
[16]; first compound 0.08 µM
  relative viability: 0.764
[16]; first compound 0.253 µM
  relative viability: 0.733
[16]; first compound 0.8 µM
  relative viability: 0.654
[16]; first compound 2.53 µM
  relative viability: 0.738
[16]; first compound 8 µM
  relative viability: 0.713
[17]; first compound 0.08 µM
  relative viability: 0.479
[17]; first compound 0.253 µM
  relative viability: 0.505
[17]; first compound 0.8 µM
  relative viability: 0.449
[17]; first compound 2.53 µM
  relative viability: 0.422
[17]; first compound 8 µM
  relative viability: 0.401
[18]; first compound 0.08 µM
  relative viability: 0.697
[18]; first compound 0.253 µM
  relative viability: 0.716
[18]; first compound 0.8 µM
  relative viability: 0.674
[18]; first compound 2.53 µM
  relative viability: 0.623
[18]; first compound 8 µM
  relative viability: 0.725
[19]; first compound 0.08 µM
  relative viability: 0.741
[19]; first compound 0.253 µM
  relative viability: 0.786
[19]; first compound 0.8 µM
  relative viability: 0.709
[19]; first compound 2.53 µM
  relative viability: 0.638
[19]; first compound 8 µM
  relative viability: 0.678
[20]; first compound 0.08 µM
  relative viability: 0.423
[20]; first compound 0.253 µM
  relative viability: 0.486
[20]; first compound 0.8 µM
  relative viability: 0.355
[20]; first compound 2.53 µM
  relative viability: 0.346
[20]; first compound 8 µM
  relative viability: 0.455
[21]; first compound 0.08 µM
  relative viability: 0.535
[21]; first compound 0.253 µM
  relative viability: 0.587
[21]; first compound 0.8 µM
  relative viability: 0.465
[21]; first compound 2.53 µM
  relative viability: 0.447
[21]; first compound 8 µM
  relative viability: 0.434
[22]; first compound 0.08 µM
  relative viability: 0.361
[22]; first compound 0.253 µM
  relative viability: 0.396
[22]; first compound 0.8 µM
  relative viability: 0.317
[22]; first compound 2.53 µM
  relative viability: 0.3
[22]; first compound 8 µM
  relative viability: 0.399
[23]; first compound 0.08 µM
  relative viability: 0.682
[23]; first compound 0.253 µM
  relative viability: 0.848
[23]; first compound 0.8 µM
  relative viability: 0.613
[23]; first compound 2.53 µM
  relative viability: 0.568
[23]; first compound 8 µM
  relative viability: 0.605

Reference: the supplement of paper PMC10307832
